# Experimental data published in patent US11111222B2, “Hydroxyeicosatrienoic acid compounds and their use as therapeutic agents” (THE REGENTS OF THE UNIVERSITY OF MICHIGAN, priority 2016, dated 2021).
# How the values were obtained:
# [1] = tested on: washed platelets from WT or 12-LOX−/− mice; test: Platelet aggregation, washed murine platelets (lumi-aggregometer); format: cell-based, mouse; details: 25 μM 12-LOX oxylipin, 10 min, vs vehicle
# Protocol: The 12-LOX null C57BL/6 (12-LOX^−/−) mice were generated using homozygous breeding pairs and wild-type (WT) C57BL/6 ([…]) mice were purchased (Jackson Laboratory). […] Mouse blood was diluted with equal volumes of Tyrode's buffer (10 mM HEPES, 11.9 mM sodium bicarbonate, 127.2 mM sodium chloride, 5 mM potassium chloride, 0.4 mM sodium phosphate monobasic, 1 mM magnesium chloride, and 5 mM D-glucose) and centrifuged at 200×g. Platelet-rich-plasma (PRP) was transferred to a tube containing 10× acid citrate dextrose solution (ACD) (2.5% sodium citrate, 1.5% citric acid, and 2% D-glucose) and apyrase (0.02 U/mL), and centrifuged at 2000×g. Platelet count was adjusted to 3×10^8 platelets/mL with Tyrode's buffer for all studies.
# A lumi-aggregometer (Chrono-log model 700D) was used to measure platelet aggregation under stirring conditions (1100 rpm) at 37° C. Prior to agonist stimulation platelets were incubated with a preselected PUFA or oxylipin for 10 minutes.
# Rap1 = Rap1 activation in washed platelets (Rap1-GTP pull-down, Western blot); format: cell-based, mouse; details: 25 μM 12-HETrE, PAR4-AP stimulated, vs vehicle
# Protocol: Following 1 minute of stimulation platelets were lysed with 2× platelet lysis buffer (100 mM Tris HCl, pH 7.4, 150 mM NaCl, 2% IGEPAL, 1% sodium deoxycholate, and 0.05% SDS) containing protease and phosphatase inhibitors. The cytoskeleton was pelleted by centrifugation at 14000×g for 7 minutes at 4° C. Active Rap1 was selectively captured from the supernatant by incubating GST-tagged Rap1 binding domain of RalGDS conjugated to glutathione sepharose beads for one hour on a nutator at 4° C. The beads were then washed 5 times with IP buffer and resuspended in 2× Laemmeli reducing buffer (62.5 mM Tris-HCl, pH 6.8, 2% SDS, 25% glycerol, 0.01% bromophenol blue, 5% β-mercaptoethanol). The samples were boiled for 10 minutes and then loaded onto a 10% SDS-polyacrylamide gel electrophoresis (PAGE) gel. Western blots were performed using a Rap1 antibody and quantified with a LI-COR imager.
# [2] = tested on: thrombus formation (platelet and fibrin) in cremaster arterioles; test: Laser-induced cremaster arteriole thrombosis model; format: in vivo, mouse
# Protocol: Wild type (WT) or 12-LOX^−/− mice (12 weeks of age) were anesthetized by intraperitoneal injection of ketamine/xylazine (100 mg/kg) prior to the exposure of the cremaster muscle arterioles under a dissecting microscope with constant perfusion of preheated bicarbonate-buffered saline (Reheman et al., J Thromb Haemost 3:875-883, 2005; Reheman et al., Blood 113:1809-1817, 2009; Wang et al., J Clin Invest 124:4281-4293, 2014). Anti-platelet (DyLight 488 anti-GPIb, 1 μg/g) and anti-fibrin (Alexa Fluor 647, 0.3 μg/g) antibodies were administered via jugular vein catheter prior to intravital microscopy. DGLA (50 mg/kg) or DMSO (vehicle control) were dissolved in a formulation of 5% DMSO and 45% PEG300 in sterile 1×PBS and then intravenously injected into mice 10 minutes prior to induction of thrombosis. 12(S)-HETrE (6 mg/kg) or equal volume of DMSO (vehicle control) was also intravenously injected into mice 10 minutes prior to induction of thrombosis. Multiple independent thrombi were induced in the arterioles (30-50 μm diameter) in each mouse by a laser ablation system (Ablate! photoablation system; Intelligent Imaging Innovations, Denver, Colo., USA). Images of thrombus formation were acquired in real-time under 63× water-immersion objective with a Zeiss Axio Examiner Z1 fluorescent microscope equipped with solid laser launch system (LaserStack; Intelligent Imaging Innovations) and high-speed sCMOS camera. All captured images were analyzed on Slidebook (Intelligent Imaging Innovations Inc., Denver, Colo., USA).
# VASP (serine 157) = test: VASP phosphorylation in human platelets; format: cell-based; details: 25 μM, 1 min; vs DMSO
# Protocol: Washed platelets were treated with PUFA or PUFA metabolite (12(S)-HETrE or compound IIc) for one minute, then directly lysed in 5× Laemmeli sample buffer (1.5 M Tris-HCl, pH 6.8, glycerol, 5% β-mercaptoethanol, 10% sodium dodecyl sulfate (SDS), and 1% bromophenol blue). The samples were boiled for five minutes and then run on a 10% SDS-PAGE gel. The levels of total and phospho-VASP (serine 157) were quantified by Western Blot using an Odyssey imaging system (LI-CoR).
# [3] = WT mice, 6 mg/kg i.v. 10 min before laser injury, vs vehicle
compound,measurement,setting,value
"CCCCC/C=C\C[C@H](O)/C=C/C=C\CCCCCCC(=O)O [12(S)-HETrE, 12(S)-hydroxy-8Z,10E,14Z-eicosatrienoic acid]",platelet aggregation,"[1]; 12-LOX−/− mouse platelets, EC80 PAR4-AP (200 μM) or collagen (2 or 5 μg/mL)",inhibited the aggregation
same,platelet aggregation,"[1]; WT mouse platelets, EC80 PAR4-AP (100 μM) or collagen (5 μg/mL)",inhibited the aggregation
same,Rap1 activation (Rap1-GTP),Rap1; 12-LOX−/− mouse platelets,suppressed Rap1 activation
same,Rap1 activation (Rap1-GTP),Rap1; WT mouse platelets,suppressed Rap1 activation
same,platelet accumulation,"[2]; 12-LOX−/− mice, 6 mg/kg i.v., vs 12-LOX−/− alone",significant inhibition of platelet accumulation
same,fibrin accumulation,"[2]; 12-LOX−/− mice, 6 mg/kg i.v., vs vehicle",no difference in fibrin accumulation
same,thrombus size and stability by fibrin accumulation,[2]; [3],significantly smaller and less stable thrombi
same,thrombus size and stability by platelet accumulation,[2]; [3],significantly smaller and less stable thrombi
same,VASP phosphorylation (S157),VASP (serine 157),enhanced VASP phosphorylation
